Here are results for 30 molecules from patent publication US12528816B2, “Substituted imidazo [1,2-b] pyridazines and [1, 2, 4] triazolo [ 4,3-b] pyridazines as camkii inhibitors” (Cardurion Pharmaceuticals, INC., priority 2020, dated 2026).

The target in one test is T1, human CaMKIIδ (Homo sapiens, UniProt Q13557).
T1 construct: Full-length, glutathione-S-transferase(GST)-tagged, human CaMKIIδ was purchased from Carna Biosciences; purchased Carna Biosciences (CaMKIIδ); Wako Pure Chemical Industries (calmodulin) 02-111
Description: Evaluation of in vitro CaMKII inhibitory activity (binding assay, TR-FRET). Particulars: human CaMKIIδ, TR-FRET binding assay; class symbols A/B/C; read-out: Act (CaMKII inhibitory activity, binding assay). The procedure: Evaluation of In Vitro CaMKII Inhibitory Activity (Binding Assay)
In vitro CaMKIIδ inhibitory activity was evaluated by a binding assay.
Full-length bovine calmodulin was purchased from Wako Pure Chemical Industries (Osaka, Japan). Terbium-labeled anti-GST anti body (Tb-anti-GST Ab) was purchased from Life Technologies (Carlsbad, CA, USA). Fluorescent probe ligand, 5,5-difluoro-7,9-dimethyl-3-(3-oxo-3-((3-((4-(3-(piperazin-1-yl)phenyl)pyrimidin-2-yl)amino)phenyl)amino) propyl)-5H-dipyrrolo[1,2-c:2′,1′-f]
Time-resolved fluorescence resonance energy transfer (TR-FRET) assay
The fluorescent probe ligand, 5,5-difluoro-7,9-dimethyl-3-(3-oxo-3-((3-((4-(3-(piperazin-1-yl)phenyl)pyrimidin-2-yl)amino)phenyl)amino) propyl)-5H-dipyrrolo[1,2-c:2′,1′-f] […] After shaded incubation of the protein-probe mixture on ice for 30 min, the premix was dispensed in the assay plate including test inhibitors with 4 fold dilution series of eight concentrations. After 1 hr incubation at room temperature, TR-FRET signals were measured in duplicate using an EnVision microplate reader (Perkin Elmer, Waltham, MA, USA).
The half maximal inhibitory concentration (IC50) of test compounds was calculated by fitting the data with the logistic equation using XLfit (IDBS, Guildford, UK).
As to `C[C@@H](Cn1cnnn1)Oc1cccc(-c2ccc3ncn(-c4cc(F)cc(O)c4C#N)c3n2)n1` [Example 472, 4-fluoro-2-hydroxy-6-[5-(6-{[(2S)-1-(1H-tetrazol-1-yl)propan-2-yl]oxy}pyridin-2-yl)-3H-imidazo[4,5-b]pyridin-3-yl]benzonitrile], the IC50 was below 10 nM. Turning to `[2H]C([2H])([2H])Oc1ccnc(-c2cnc3ccc(-c4ccc(F)c(O[C@@H](C)Cn5cnnn5)c4)nn23)c1C#N` [Example 473, 2-[6-(4-fluoro-3-{[(2S)-1-(1H-tetrazol-1-yl)propan-2-yl]oxy}phenyl)imidazo[1,2-b]pyridazin-3-yl]-4-(methoxy-d3)pyridine-3-carbonitrile], the IC50 was below 10 nM.

On to `[2H]C([2H])([2H])Oc1cc(F)cc(-n2cnc3ccc(-c4cccc(O[C@@H](C)Cn5cnnn5)n4)nc32)c1C#N` [Example 474, 4-fluoro-2-(methoxy-d3)-6-[5-(6-{[(2S)-1-(1H-tetrazol-1-yl)propan-2-yl]oxy}pyridin-2-yl)-3H-imidazo[4,5-b]pyridin-3-yl]benzonitrile], for which the IC50 was below 10 nM. The same measure, in the same setting: the result for `COc1ccnc(-c2cnc3ccc(-c4ccc(F)c(O[C@@H](CF)Cn5cnnn5)c4)nn23)c1C#N` [Example 475, 2-[6-(4-fluoro-3-{[(2R)-1-fluoro-3-(1H-tetrazol-1-yl)propan-2-yl]oxy}phenyl)imidazo[1,2-b]pyridazin-3-yl]-4-methoxypyridine-3-carbonitrile] reads below 10 nM; that for `COc1ccnc(-c2cnc3ccc(-c4ccc(F)c(O[C@@H](CO)Cn5cnnn5)c4)nn23)c1C#N` [Example 477, 2-[6-(4-fluoro-3-{[(2R)-1-hydroxy-3-(1H-tetrazol-1-yl)propan-2-yl]oxy}phenyl)imidazo[1,2-b]pyridazin-3-yl]-4-methoxypyridine-3-carbonitrile], below 10 nM; that for `COc1ccnc(-c2cnc3ccc(-c4ccc(F)c(N[C@@H](C)Cn5cnnn5)c4)nn23)c1C#N` [Example 478, 2-[6-(4-fluoro-3-{[(2S)-1-(1H-tetrazol-1-yl)propan-2-yl]amino}phenyl)imidazo[1,2-b]pyridazin-3-yl]-4-methoxypyridine-3-carbonitrile], below 10 nM.

As for `COC(=O)c1cccc(-c2cnn3ccc(-c4ccc(C#N)c(O[C@@H](C)Cn5cnnn5)c4)nc23)c1` [compound 2, methyl 3-[5-(4-cyano-3-{[(2S)-1-(1H-tetrazol-1-yl)propan-2-yl]oxy}phenyl)pyrazolo[1,5-a]pyrimidin-3-yl]benzoate], the IC50 is above 100 nM.

For `C[C@@H](Cn1cnnn1)Oc1cc(-c2ccn3ncc(-c4cccs4)c3n2)ccc1F` [compound 3], the IC50 is below 10 nM. Still for that read-out and setting: to `C[C@@H](Cn1cnnn1)Oc1cc(-c2ccn3ncc(-c4ccccn4)c3n2)ccc1F` [compound 4] belongs below 10 nM; to `C[C@@H](Cn1cnnn1)Oc1cc(-c2ccn3ncc(-c4ccccc4)c3n2)ccc1F` [compound 5], below 10 nM; to `COC(=O)c1cccc(-c2cnn3ccc(-c4ccc(F)c(O[C@@H](C)Cn5cnnn5)c4)nc23)c1` [compound 6], below 10 nM. The same measure, in the same setting: the result for `C[C@@H](Cn1cnnn1)Oc1cc(-c2ccn3ncc(-c4cccc(C(=O)O)c4)c3n2)ccc1F` [compound 7] reads below 10 nM.

Regarding `CCNC(=O)c1cccc(-c2cnn3ccc(-c4ccc(F)c(O[C@@H](C)Cn5cnnn5)c4)nc23)c1` [compound 8], the IC50 is below 10 nM.

For the molecule `COCCCNC(=O)c1cccc(-c2cnn3ccc(-c4ccc(F)c(O[C@@H](C)Cn5cnnn5)c4)nc23)c1` [compound 9], the IC50 is below 10 nM. Still for that read-out and setting: the result for `C[C@@H](Cn1cnnn1)Oc1cc(-c2ccn3ncc(-c4cccc(C(=O)N5CCC(N6CCOCC6)CC5)c4)c3n2)ccc1F` [compound 10] reads below 10 nM. For the molecule `CCN(CC)CCNC(=O)c1cccc(-n2cnc3ccc(-c4ccc(C#N)c(O[C@@H](C)Cn5cnnn5)c4)nc32)c1` [compound 11], the IC50 is above 100 nM. On the same count and under the same terms, to `CCN(CC)CCNC(=O)c1cccc(-n2cnc3ccc(-c4ccc(F)c(O[C@@H](C)Cn5cnnn5)c4)nc32)c1` [compound 12] belongs below 10 nM; to `COC(=O)c1cccc(-n2cnc3ccc(-c4ccc(F)c(O[C@@H](C)Cn5cnnn5)c4)nc32)c1` [compound 13], below 10 nM; to `COC(=O)c1ccnc(-n2cnc3ccc(-c4ccc(F)c(O[C@@H](C)Cn5cnnn5)c4)nc32)c1` [compound 14], below 10 nM. On to `C[C@@H](Cn1cnnn1)Oc1cccc(-c2ccn3ncc(-c4ccc(N5CCOCC5)cc4)c3n2)c1` [compound 15], for which the IC50 was in the range of 10 to 100 nM. Same read-out and setting: to `C[C@@H](Cn1cnnn1)Oc1cccc(-c2ccn3ncc(-c4cccc(C(=O)O)c4)c3n2)c1` [compound 16] belongs below 10 nM.

`C[C@@H](Cn1cnnn1)Oc1cc(-c2ccc3ncc(-c4cccs4)n3c2)ccc1F` [compound 17]: the IC50 lay within 10 to 100 nM. With `C[C@@H](Cn1cnnn1)Oc1cc(-c2ccn3ncc(-c4ccco4)c3n2)ccc1F` [compound 18], the IC50 is below 10 nM.

Still in this test, the particulars now being: in vitro CaMKII inhibitory activity (binding assay), human CaMKIIδ; read-out: Act.
Take `C[C@@H](Cn1cnnn1)Oc1cccc(-c2ccc3ncc(-c4cccc(C(C)(F)F)c4C#N)n3n2)c1` [Example 427, 2-(1,1-difluoroethyl)-6-[6-(3-{[(2S)-1-(1H-tetrazol-1-yl)propan-2-yl]oxy}phenyl)imidazo[1,2-b]pyridazin-3-yl]benzonitrile]: the IC50 is below 10 nM. Regarding `C[C@@H](Cn1cnnn1)Oc1cc(-c2ccc3ncc(-c4nccc(OCF)c4C#N)n3n2)ccc1F` [Example 435, 2-[6-(4-fluoro-3-{[(2S)-1-(1H-tetrazol-1-yl)propan-2-yl]oxy}phenyl)imidazo[1,2-b]pyridazin-3-yl]-4-(fluoromethoxy)pyridine-3-carbonitrile], the IC50 is below 10 nM.

Take `COc1cc(F)cc(-c2cnc3ccc(-c4ccc(F)c(O[C@@H](C)Cn5cnnn5)n4)nn23)c1C#N` [Example 447, 4-fluoro-2-[6-(5-fluoro-6-{[(2S)-1-(1H-tetrazol-1-yl)propan-2-yl]oxy}pyridin-2-yl)imidazo[1,2-b]pyridazin-3-yl]-6-methoxybenzonitrile]: the IC50 was below 10 nM. On to `COc1cc(Cl)cc(-n2cnc3ccc(-c4cncc(O[C@@H](C)Cn5cnnn5)n4)nc32)c1C#N` [Example 448, 4-chloro-2-methoxy-6-[5-(6-{[(2S)-1-(1H-tetrazol-1-yl)propan-2-yl]oxy}pyrazin-2-yl)-3H-imidazo[4,5-b]pyridin-3-yl]benzonitrile], for which the IC50 was below 10 nM. `COc1cc(F)cc(-c2cnc3ccc(-c4cccc(O[C@@H](C)Cn5cncn5)n4)nn23)c1C#N` [Example 452, 4-fluoro-2-methoxy-6-[6-(6-{[(2S)-1-(1H-1,2,4-triazol-1-yl)propan-2-yl]oxy}pyridin-2-yl)imidazo[1,2-b]pyridazin-3-yl]benzonitrile]: the IC50 is below 10 nM. The same measure, in the same setting: the result for `C[C@@H](Cn1cnnn1)Oc1cccc(-c2ccc3ncc(-c4nccc(OCF)c4C#N)n3n2)c1` [Example 466, 4-(fluoromethoxy)-2-[6-(3-{[(2S)-1-(1H-tetrazol-1-yl)propan-2-yl]oxy}phenyl)imidazo[1,2-b]pyridazin-3-yl]pyridine-3-carbonitrile] reads below 10 nM; that for `C[C@@H](Cn1cnnn1)Oc1cccc(-c2ccc3ncc(-c4nc(F)ccc4C#N)n3n2)c1` [Example 467, 6-fluoro-2-[6-(3-{[(2S)-1-(1H-tetrazol-1-yl)propan-2-yl]oxy}phenyl)imidazo[1,2-b]pyridazin-3-yl]pyridine-3-carbonitrile], below 10 nM.
